Measured values from PMC5751233, “Characterization of the Asiatic Acid Glucosyltransferase, UGT73AH1, Involved in Asiaticoside Biosynthesis in Centella asiatica (L.) Urban” (International Journal of Molecular Sciences, 2017).

Target: T1, UGT73AH1 (Centella asiatica, UniProt A0A2I7M6C4)
T1 construct: full-length ORF with stop codon, untagged, 501 residues; expressed in E. coli BL21 (DE3), soluble total protein extract
T1 sequence (A0A2I7M6C4 1-501): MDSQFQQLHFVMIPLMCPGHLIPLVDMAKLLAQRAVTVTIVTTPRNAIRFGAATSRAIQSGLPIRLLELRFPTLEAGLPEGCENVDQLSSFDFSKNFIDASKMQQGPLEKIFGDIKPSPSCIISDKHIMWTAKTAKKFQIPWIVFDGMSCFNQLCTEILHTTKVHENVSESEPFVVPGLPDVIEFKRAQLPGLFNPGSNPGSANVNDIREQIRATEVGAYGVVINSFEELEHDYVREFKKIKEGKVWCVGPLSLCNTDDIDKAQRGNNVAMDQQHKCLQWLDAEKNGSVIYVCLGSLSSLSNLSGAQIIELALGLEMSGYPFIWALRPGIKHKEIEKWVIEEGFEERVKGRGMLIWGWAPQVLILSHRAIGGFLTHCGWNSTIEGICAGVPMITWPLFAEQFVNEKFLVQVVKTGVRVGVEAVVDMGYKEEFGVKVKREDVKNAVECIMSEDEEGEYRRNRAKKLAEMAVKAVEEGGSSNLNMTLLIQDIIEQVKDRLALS
Test: UPLC-QTOF/MS detection of monoglucoside product
Type: biochemical
Conditions: 5 mM UDP-glucose, 0.5 mM asiatic acid, 50 mM Tris-HCl pH 8.5, 35 °C, 4 h; E. coli total protein extract; boiled-protein control

C[C@H]1[C@H](C)CC[C@]2(C(=O)O)CC[C@]3(C)C(=CC[C@@H]4[C@@]5(C)C[C@@H](O)[C@H](O)[C@@](C)(CO)[C@@H]5CC[C@]43C)[C@H]12 [asiatic acid]
UPLC-QTOF/MS detection of monoglucoside product: our results show that UGT73AH1 catalyzes the glycosylation of asiatic acid
